# Results taken from patent US20220202905A1, “COMPOSITION FOR PREVENTING OR TREATING NEUROTROPHIC KERATITIS WHICH CONTAINS PACAP PEPTIDE OR STABILIZED PACAP PEPTIDE” (SENJU PHARMACEUTICAL CO., LTD., priority 2019, published 2022).
# Square brackets hold non-standard residues; d marks the D form. Peptide text beside a SMILES is read from it. Ala(1H-tetrazol-5-yl) = N[C@@H](Cc1nnn[nH]1)C(=O)O
# Columns and labels:
# PAC1R = biological target: T1, PAC1R (Homo sapiens, UniProt P41586); assay: cAMP assay in PAC1R high-expressing CHO-K1 cell line; assay type: cell-based; details: Table 12; cAMP inducing effect, CHO-K1 PAC1R high-expressing cells
# T1 construct: host or cells: CHO-K1
# T1 sequence (P41586 21-468): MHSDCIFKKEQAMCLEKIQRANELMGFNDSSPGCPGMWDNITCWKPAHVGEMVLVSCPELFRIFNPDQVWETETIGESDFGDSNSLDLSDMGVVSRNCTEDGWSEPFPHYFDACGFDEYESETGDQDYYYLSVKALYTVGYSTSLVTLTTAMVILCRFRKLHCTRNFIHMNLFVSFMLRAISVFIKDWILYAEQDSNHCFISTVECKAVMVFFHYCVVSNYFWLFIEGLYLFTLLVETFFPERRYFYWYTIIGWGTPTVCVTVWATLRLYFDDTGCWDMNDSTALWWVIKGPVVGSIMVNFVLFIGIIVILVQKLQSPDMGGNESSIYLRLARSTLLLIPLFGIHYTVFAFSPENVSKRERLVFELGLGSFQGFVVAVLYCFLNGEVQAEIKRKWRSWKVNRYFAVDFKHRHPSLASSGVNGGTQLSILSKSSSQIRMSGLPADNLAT
# Experimental: (§1) The cells were cultured for 18 to 24 hours at 37° C. in a 5% C02 incubator, adhering the cells to the plate. […] A 5-fold dilution series was then prepared with the same Cell assay buffer and used in an assay. The cAMP assay was carried out using a Hit Hunter cAMP Assay for Biologics kit (product of DiscoveRx, Cat. No. 90-0075LM25), according to the included kit instructions. […] Next, the culture medium was removed from the CHO-K1 cell culture plate, washing was performed with PBS, and the peptide-cAMP antibody liquid mixtures were added to the cells and incubated for 30 minutes under a 5% CO2 atmosphere at 37° C. A working detection solution was then added and the culture plate was shielded from light with aluminum foil and incubated at 25° C. for 1 hour. After incubation, Solution A was added and the culture plate was shielded from light with aluminum foil and then incubated at 25° C. for 3 hours. […] The obtained value for the Relative Luminescence Unit (RLU) was analyzed with GraphPad Prism Ver 6.05 (product of Graph Pad) and the EC50 value was calculated for each peptide. […] FIG. 2 and Table 11. […] A 5-fold dilution series was then prepared with the same Cell assay buffer and used in an assay. […] A 5-fold dilution series was then prepared with the same Cell assay buffer and used in an assay.
# VPAC1R = biological target: T2, VPAC1R (Homo sapiens, UniProt P32241); assay: cAMP assay in VPAC1R high-expressing CHO-K1 cell line; assay type: cell-based; details: Table 12; cAMP inducing effect, CHO-K1 VPAC1R high-expressing cells
# T2 construct: host or cells: CHO-K1
# T2 sequence (P32241 31-457): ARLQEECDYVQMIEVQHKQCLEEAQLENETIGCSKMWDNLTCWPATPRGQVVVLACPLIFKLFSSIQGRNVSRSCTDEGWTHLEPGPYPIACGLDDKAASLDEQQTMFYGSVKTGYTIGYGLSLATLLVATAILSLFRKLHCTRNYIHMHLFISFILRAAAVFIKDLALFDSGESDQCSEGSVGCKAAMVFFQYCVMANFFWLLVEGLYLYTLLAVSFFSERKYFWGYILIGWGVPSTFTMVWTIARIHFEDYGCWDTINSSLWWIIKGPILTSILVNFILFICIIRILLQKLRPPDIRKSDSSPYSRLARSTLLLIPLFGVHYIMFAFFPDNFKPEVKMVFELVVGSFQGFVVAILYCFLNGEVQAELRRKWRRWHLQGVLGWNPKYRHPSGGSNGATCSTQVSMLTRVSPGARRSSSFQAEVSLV
# Experimental: as §1
# [1] = Peptide stability test, phosphate buffer (pH 7.0), 40° C. storage, HPLC remaining rate; assay type: physicochemical
# Experimental: Peptides 1 and 3 to 5 synthesized in Example 2 were weighed and dissolved in phosphate buffer (pH 7.0) to prepare 1.0 mM peptide solutions. The 1.0 mM peptide solutions were then diluted with phosphate buffer to 100 μM. After filtering with Chromatdisk (product of Merck Millipore, Millex-GV, 0.22 μm), each filtrate was dispensed into an LC vial (Waters Deactivated […] prepared peptide solutions were incubated for one month or 2 months in a 40° C. thermostatic bath to obtain stored samples. A simultaneously prepared sample among the peptide solutions that was not stored was used as a standard sample (initial sample). The standard sample and the stored samples were stored at -30° C. until sample analysis. Using the total weight of the aqueous peptide solution and storage vessel as the specimen weight, measurements were recorded as the specimen weights before storage and the specimen weights after storage under different storage conditions. The empty weight of the storage vessel was also measured, and the moisture permeability was determined by the following formula. After stirring the standard sample and the stored samples with a vortex mixer, each peptide solution was transferred to an HPLC vial (Deactivated Qsert vial by Waters Co.). Reverse-phase HPLC (HPLC system: Prominence by Shimadzu Corp.) was conducted under the conditions shown in Table 3 below for analysis of the peptide solutions, and chromatograms were obtained. Guard column: XSelect CSH C18 by Waters Co., 5 μm, 4.6×20 mm Guard Cartridge Detection wavelength: 220 nm Mobile phase A: 0.1% formic acid aqueous solution Mobile phase B: 0.1% acetonitrile formate solution Measuring time: 30 minutes Measuring sample injection rate: 50 μL Flow rate: 1.0 mL/min Sample cooler: 4° C. Column temperature: 40° C. Mobile phase delivery: The mixing ratio of mobile phase A and mobile phase B was varied as shown in Table 3 for linear concentration gradient control. The peak area value for the peptide in the chromatogram was calculated, and the remaining rate (remaining rate before correction for water) was calculated using formula (2). The remaining rate after correction for water was also calculated from the remaining rate before correction for water using formula (3), taking into account the moisture permeability of the vessel. Peptides 10 and 11 synthesized in Example 2 were weighed and dissolved in phosphate buffer (pH 7.0) to prepare 1.0 mM peptide solutions. Each solution was filtered with a Chromatdisk (product of Merck Millipore. Millex-GV, 0.22 μm). Each filtrate was diluted to 100 μM with phosphate buffer (pH 7.0) and dispensed into a tube (Protein LoBind Tube by Eppendorf Co.). The prepared peptide solutions were incubated for one month or 2 months in a 40° C. thermostatic bath to obtain stored samples. A simultaneously prepared sample among the peptide solutions that was not stored was used as a standard sample (initial sample). The standard sample and the stored samples were stored at -30° C. until sample analysis. The remaining rate after correction for water for each peptide among the stored samples was measured in the same manner as Example 4, and the results are shown in Table 8.
# [2] = Peptide stability test, Tris buffer (pH 7.0), 60° C. storage, HPLC remaining rate; assay type: physicochemical; details: Table 7; 100 μM in Tris buffer pH 7.0
# In short: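 Peptides at 100 μM in Tris buffer (pH 7.0) stored 1 or 2 weeks at 60° C.; unstored sample kept at −30° C. as initial reference. Remaining peptide quantified by reversed-phase HPLC at 220 nm (formic acid/acetonitrile gradient, 40° C. column), as water-corrected remaining rate.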
# [3] = Table 8, 100 μM in phosphate buffer pH 7.0, measured as in Example 4
EC50 (PAC1R),EC50 (VPAC1R),"remaining rate after correction for water, 40° C., 1 month preservation [1, 3]","remaining rate after correction for water, 40° C., 2 months preservation [1, 3]","stability in aqueous solution (in words), 40° C. storage ([1]; phosphate buffer pH 7.0, 1 or 2 months)","remaining rate after correction for water, 60° C., 1 week preservation [2]","remaining rate after correction for water, 60° C., 2 weeks preservation [2]",SMILES
0.06 nM,0.101 nM,–,–,–,–,–,CC[C@H](C)[C@H](NC(=O)CNC(=O)[C@H](Cc1nnn[nH]1)NC(=O)[C@H](CO)NC(=O)[C@@H](N)Cc1c[nH]cn1)C(=O)N[C@@H](Cc1ccccc1)C(=O)N[C@H](C(=O)N[C@@H](CC(=O)O)C(=O)N[C@@H](CO)C(=O)N[C@@H](Cc1ccc(O)cc1)C(=O)N[C@@H](CO)C(=O)N[C@@H](CCCNC(=N)N)C(=O)N[C@@H](Cc1ccc(O)cc1)C(=O)N[C@@H](CCCNC(=N)N)C(=O)N[C@@H](CCCCN)C(=O)N[C@@H](CCC(N)=O)C(=O)N[C@@H](CCSC)C(=O)N[C@@H](C)C(=O)N[C@H](C(=O)N[C@@H](CCCCN)C(=O)N[C@@H](CCCCN)C(=O)N[C@@H](Cc1ccc(O)cc1)C(=O)N[C@@H](CC(C)C)C(=O)N[C@@H](C)C(=O)N[C@@H](C)C(=O)N[C@H](C(=O)N[C@@H](CC(C)C)C(N)=O)C(C)C)C(C)C)[C@@H](C)O [Peptide 3]
–,0.101 nM,94.0%,86.8%,stabilized to the same degree,–,–,CC[C@H](C)[C@H](NC(=O)CNC(=O)[C@H](Cc1nnn[nH]1)NC(=O)[C@H](CO)NC(=O)[C@H](Cc1c[nH]cn1)NC(C)=O)C(=O)N[C@@H](Cc1ccccc1)C(=O)N[C@H](C(=O)N[C@@H](Cc1nnn[nH]1)C(=O)N[C@@H](CO)C(=O)N[C@@H](Cc1ccc(O)cc1)C(=O)N[C@@H](CO)C(=O)N[C@@H](CCCNC(=N)N)C(=O)N[C@@H](Cc1ccc(O)cc1)C(=O)N[C@@H](CCCNC(=N)N)C(=O)N[C@@H](CCCCN)C(=O)N[C@@H](CCC(N)=O)C(=O)N[C@@H](CCSC)C(=O)N[C@@H](C)C(=O)N[C@H](C(=O)N[C@@H](CCCCN)C(=O)N[C@@H](CCCCN)C(=O)N[C@@H](Cc1ccc(O)cc1)C(=O)N[C@@H](CC(C)C)C(=O)N[C@@H](C)C(=O)N[C@@H](C)C(=O)N[C@H](C(=O)N[C@@H](CC(C)C)C(N)=O)C(C)C)C(C)C)[C@@H](C)O [Peptide 10] (Ac-HS[Ala(1H-tetrazol-5-yl)]GIFT[Ala(1H-tetrazol-5-yl)]SYSRYRKQMAVKKYLAAVL-NH2)
0.079 nM,0.072 nM,–,–,–,96.5%,93.1%,CC[C@H](C)[C@H](NC(=O)[C@H](C)NC(=O)[C@H](Cc1nnn[nH]1)NC(=O)[C@H](CO)NC(=O)[C@H](Cc1c[nH]cn1)NC(C)=O)C(=O)N[C@@H](Cc1ccccc1)C(=O)N[C@H](C(=O)N[C@@H](Cc1nnn[nH]1)C(=O)N[C@@H](CO)C(=O)N[C@@H](Cc1ccc(O)cc1)C(=O)N[C@@H](CO)C(=O)N[C@@H](CCCNC(=N)N)C(=O)N[C@@H](Cc1ccc(O)cc1)C(=O)N[C@@H](CCCNC(=N)N)C(=O)N[C@@H](CCCCN)C(=O)N[C@@H](CCC(N)=O)C(=O)N[C@@H](CC(C)C)C(=O)N[C@@H](C)C(=O)N[C@H](C(=O)N[C@@H](CCCCN)C(=O)N[C@@H](CCCCN)C(=O)N[C@@H](Cc1ccc(O)cc1)C(=O)N[C@@H](CC(C)C)C(=O)N[C@@H](C)C(=O)N[C@@H](C)C(=O)N[C@H](C(=O)N[C@@H](CC(C)C)C(N)=O)C(C)C)C(C)C)[C@@H](C)O [Peptide 23] (Ac-HS[Ala(1H-tetrazol-5-yl)]AIFT[Ala(1H-tetrazol-5-yl)]SYSRYRKQLAVKKYLAAVL-NH2)
0.06 nM,0.044 nM,–,–,–,96.4%,93.5%,CC[C@H](C)[C@H](NC(=O)CNC(=O)[C@H](Cc1nnn[nH]1)NC(=O)[C@H](CO)NC(=O)[C@H](Cc1c[nH]cn1)NC(C)=O)C(=O)N[C@@H](Cc1ccccc1)C(=O)N[C@H](C(=O)N[C@@H](Cc1nnn[nH]1)C(=O)N[C@@H](C)C(=O)N[C@@H](Cc1ccc(O)cc1)C(=O)N[C@@H](CO)C(=O)N[C@@H](CCCNC(=N)N)C(=O)N[C@@H](Cc1ccc(O)cc1)C(=O)N[C@@H](CCCNC(=N)N)C(=O)N[C@@H](CCCCN)C(=O)N[C@@H](CCC(N)=O)C(=O)N[C@@H](C)C(=O)N[C@@H](C)C(=O)N[C@H](C(=O)N[C@@H](CCCCN)C(=O)N[C@@H](CCCCN)C(=O)N[C@@H](Cc1ccc(O)cc1)C(=O)N[C@@H](CC(C)C)C(=O)N[C@@H](C)C(=O)N[C@@H](C)C(=O)N[C@H](C(=O)N[C@@H](CC(C)C)C(N)=O)C(C)C)C(C)C)[C@@H](C)O [Peptide 27] (Ac-HS[Ala(1H-tetrazol-5-yl)]GIFT[Ala(1H-tetrazol-5-yl)]AYSRYRKQAAVKKYLAAVL-NH2)
